Drawing on BindingDB's records for doi:10.1021/jm00144a035 (1982), this text covers Ki for 2 compounds.

The assay addresses Choline O-acetyltransferase (squid). The assay is described as follows: Inhibition of choline acetyltransferase isolated from squid head ganglia.

In general, Ki refers to a dissociation constant, usually derived from enzyme kinetics or from competition with a known ligand. Higher therefore signals a looser hold on the target. The compound `Nc1c(S(=O)(=O)O)cc(Nc2ccc(Nc3nc(Nc4ccc(S(=O)(=O)O)cc4)nc(=O)[nH]3)c(S(=O)(=O)O)c2)c2c1C(=O)c1ccccc1C2=O` [1-Amino-4-{4-[4-hydroxy-6-(4-sulfo-phenylamino)-[1,3,5]triazin-2-ylamino]-3-sulfo-phenylamino}-9,10-dioxo-9,10-dihydro-anthracene-2-sulfonic acid] gave an inhibition constant (Ki) of 1800 nM.
Compound `CSSCCNC(=O)CCNC(=O)C(O)C(C)(C)COP(=O)(O)OP(=O)(O)OC[C@H]1O[C@@H](n2cnc3c(N)ncnc32)[C@H](O)[C@@H]1OP(=O)(O)O` (some centres not stated) [Methyldisulfanyl analogue of coenzyme A] had an inhibition constant Ki of 2300 nM.
